# US20240352419A1, “METHODS AND COMPOSITIONS FOR DIFFERENTIATION OF PLURIPOTENT STEM CELLS AND DERIVED HEMATOPOIETIC LINEAGE CELLS” (NUWACELL BIOTECHNOLOGIES CO., LTD., priority 2022, published 2024)
# Legend:
# Format in all cases: cell-based
# K562 cells = experiment: Cytotoxicity of Stage 3 iNK cells by CFSE/7AAD assay; conditions: added to Stage 3 medium (IL-10 20 ng/mL, IL-18 50 ng/mL), E:T 3:1, 4 hr, FIG. 13A
# Method: hiPSCs were prepared as described in CN108373998B. On Day −1, Embryoid body (EB) formation (Stage 1-1) was carried out by placing individualized hiPSCs in E8 medium containing 10 μM Blebbistatin in T25 flasks on a bellydancer and culture overnight. On Day 0, lateral mesoderm differentiation (Stage 1-2) was initiated by changing the medium to a Stage 1-2 differentiation medium comprising IF-4 basal medium and supplemented with BMP4 (25 ng/mL), VEGF (15 ng/ml), bFGF (0.5 ng/mL) and CHIR99021 (4 μM) for 2 days. On Day 2, lateral mesoderm differentiation (Stage 1-3) continued for 1 day in a Stage 1-3 differentiation medium comprising IF-4 basal medium and supplemented with BMP4 (25 ng/mL), VEGF (50 ng/mL) and bFGF (0.5 ng/mL) and CHIR99021 (1 μM). On Day 3, HE specification (Stage 1-4) was initiated by adding a Stage 1-4 differentiation medium comprising IF-4 basal medium and supplemented with VEGF (15 ng/ml), bFGF (5 ng/ml), XAV939 (5 μM) for 1 day. […] On Day 11 of co-culture, iNK cells were collected and stained with CD56-PE antibody (BD, #555516), the percentage of CD56+ cells was analyzed by flow cytometry. The cytotoxicity of Stage 3 iNK cells towards K562 cells was detected by CFSE/7AAD assay after 4 hr co-culture at E:T of 3:1.
# PBNK cells = experiment: Expansion of PBNK cells from PBMCs (expansion fold, CD56+CD3- percentage by flow cytometry); conditions: effect of heparin sodium concentration (0-50 μg/mL) in NKSFM
# Method: The effect of the concentration of nicotinamide (NAM) in an exemplary basal medium on NK cell expansion was evaluated. The above basal medium comprised the following components: IMDM (Sigma):RPMI1640 (Gibco) (50%: 50%); about 1.3 ng/ml of Cupric sulfate, about 3 μM of Ferric sulfate, about 0.432 μg/mL of Zinc sulfate, about 1˜50 ng/ml of Na Selenite, about 110 μg/mL of Sodium pyruvate, 0.1˜20 μg/mL of Insulin, 1˜200 μg/mL of Transferrin, about 1% (v/v) of GlutaMAX-1, 0.1˜20 mg/mL of HSA, 1˜400 μM of MTG, about 80 μg/mL of Ascorbic acid and indicated concentration of NAM. Peripheral blood mononuclear cells (PBMCs) were isolated by density gradient centrifugation using Ficoll-Paque. On Day 0, PBMCs were plated at 1×10^6 cells/mL in a 48-well-plate in the basal medium with NAM (either 0, 1, 2, 2.5, 3, 3.5, 4, or 5 mM) and stimulated with the following reagents for 3 days: immobilized CD16 antibody (Biolegend, 302014) (135 ng/cm^2), IL-2 (700 IU/mL), IL-15 (10 ng/ml) and OK432 (0.01 KE/mL). On day 3, cells were re-suspended in the above basal medium supplemented with IL-2 (700 IU/mL) and IL-15 (10 ng/mL). Fresh medium was added every other day to maintain cell density below 2×10^6 cells/mL. Cells were collect on Day 14 and stained with CD56-PE and CD3-PerCP-Cy5.5 antibodies, the percentage of CD56^+CD3^− NK cells was analyzed by flow cytometry.
# (§1) The effect of heparin sodium concentration in an exemplary NKSFM on NK cell expansion was also evaluated. NKSFM comprised the following components: IMDM (Sigma):DMEM/F12 (Gibco) (50%: 50%); about 20 μM of Ethanolamine, about 1˜50 ng/ml of Na Selenite, about 110 μg/mL of Sodium pyruvate, 0.1˜20 μg/mL of Insulin, 1˜200 μg/mL of Transferrin, about 1% (v/v) of GlutaMAX-1, 0.1˜20 mg/mL of Human serum albumin, 1˜400 μM of MTG, about 80 μg/mL of Ascorbic acid, about 1˜5 mM of NAM, 4% (v/v) of PLT, and indicated concentration of heparin sodium. PBMCs were isolated by density gradient centrifugation using Ficoll-Paque. On Day 0, PBMCs were plated at 1×10^6 cells/mL in a 48-well-plate in NKSFM with heparin sodium (0, 0.5, 1, 3, 10, 30, or 50 μg/mL) and stimulated with the following reagents for 3 days: immobilized CD16 antibody (Biolegend, 302014) (135 ng/cm^2), OK432 (0.01 KE/mL), NeoIL-2 (50 ng/ml), IL-12 (10 ng/mL), IL-18 (50 ng/mL). […] Cells were collect on Day 13 and stained with CD56-PE and CD3-PerCP-Cy5.5 antibodies, the percentage of CD56^+CD3^− NK cells was analyzed by flow cytometry. The specific lysis of K562 tumor cells by NK cells were assessed by CFSE/7-AAD cytotoxicity assay. […] After incubation for 4 hours, cells were stained with 7-AAD (Live/dead staining) and analyzed with flow cytometry.
# The effect of PLT percentage (v/v) in an exemplary NKSFM on NK cell expansion was evaluated. […]
# K562 tumor cells = experiment: CFSE/7-AAD cytotoxicity assay of expanded NK cells; conditions: effect of heparin sodium concentration in NKSFM, E:T 3:1, 4 hours, FIG. 3C
# Method: as §1, with “Ficoll-Paque.” for “Ficoll-Paque. On Day 0, PBMCs were plated at 1×10^6 cells/mL in a 48-well-plate in NKSFM with heparin sodium (0, 0.5, 1, 3, 10, 30, or 50 μg/mL) and stimulated with the following reagents for 3 days: immobilized CD16 antibody (Biolegend, 302014) (135 ng/cm^2), OK432 (0.01 KE/mL), NeoIL-2 (50 ng/ml), IL-12 (10 ng/mL), IL-18 (50 ng/mL).”
# The effect of PLT percentage (v/v) in an exemplary NKSFM on NK cell expansion was evaluated. […] Cells were collect on Day 14 and stained with CD56-PE and CD3-PerCP-Cy5.5 antibodies, the percentage of CD56^+CD3^− NK cells was analyzed by flow cytometry. The specific lysis of K562 tumor cells by NK cells were assessed by CFSE/7-AAD cytotoxicity assay. […]
Substance,cytotoxicity of iNK cells (K562 cells),"NK cell expansion fold (PBNK cells; Day 13, FIG. 3A)","percentage of CD56+CD3− NK cells (PBNK cells; Day 13, FIG. 3B)",specific lysis of K562 tumor cells (K562 tumor cells)
IL-10: interleukin added to Stage 3 expansion and maturation medium,significantly improve,,,
heparin sodium,,significantly influences,minimal effect,minimal effect
